Literature values in paper PMC8453635, “Piperidine Azasugars Bearing Lipophilic Chains: Stereoselective Synthesis and Biological Activity as Inhibitors of Glucocerebrosidase (GCase)” (The Journal of Organic Chemistry, 2021).
Where a chain is given by its changes, count along the chain named. Like-named read-outs stand apart in the source and are kept apart here.

How the values were obtained:
[1] = system: N370S mutant enzyme in fibroblasts; settings: cited from earlier work
L444P variant = system: L444P variant; parameters: method as in PMID 12434014; settings: cited from earlier work
GCase = target: T1, GCase (Homo sapiens, UniProt P04062); settings: cited from earlier work; for IC50: human leukocytes, same experimental protocol and substrate concentration
T1 construct: screened toward GCase in leukocytes isolated from healthy donors (controls); from tissue; host or cells: leukocytes isolated from healthy donors, disrupted by sonication
T1 sequence (P04062 40-536): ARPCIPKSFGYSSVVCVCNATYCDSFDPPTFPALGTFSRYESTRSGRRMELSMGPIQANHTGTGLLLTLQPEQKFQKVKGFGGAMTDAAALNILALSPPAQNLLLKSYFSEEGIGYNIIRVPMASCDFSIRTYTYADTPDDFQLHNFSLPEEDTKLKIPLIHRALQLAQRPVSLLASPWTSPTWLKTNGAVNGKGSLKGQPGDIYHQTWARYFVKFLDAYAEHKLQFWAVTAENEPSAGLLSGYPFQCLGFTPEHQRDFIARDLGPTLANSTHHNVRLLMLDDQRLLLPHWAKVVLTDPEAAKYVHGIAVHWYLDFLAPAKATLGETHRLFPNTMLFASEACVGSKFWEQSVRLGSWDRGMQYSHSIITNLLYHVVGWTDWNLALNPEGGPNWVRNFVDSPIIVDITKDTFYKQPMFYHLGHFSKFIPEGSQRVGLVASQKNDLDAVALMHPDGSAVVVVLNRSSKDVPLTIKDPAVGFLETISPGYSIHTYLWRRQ

wild-type fibroblasts = system: wild-type fibroblasts; parameters: method as in PMID 32200326; settings: cited from earlier work
lysosomal GCase = settings: toward GCase; cited from earlier work
[2] = target: T2, GCase in fibroblasts bearing the N370S/RecNcil mutation (Homo sapiens, UniProt P04062, A495P/L483P/N409S); parameters: method as in PMID 30996807, PMID 32200326; settings: 100 μM; cited from earlier work
T2 construct: fibroblasts derived from Gaucher patients bearing the N370S/RecNcil and L444P/L444P mutations; host or cells: fibroblasts from Gaucher disease patients, N370S/RecNcil
T2 sequence (P04062 40-536 N409S): T1 sequence (P04062 40-536) with N370S

[3] = target: T3, GCase in fibroblasts bearing the L444P/L444P mutations (Homo sapiens, UniProt P04062, L483P); parameters: method as in PMID 30996807, PMID 32200326; settings: homozygous L444P mutation, 100 μM; cited from earlier work
T3 construct: fibroblasts derived from Gaucher patients bearing the N370S/RecNcil and L444P/L444P mutations; host or cells: fibroblasts from Gaucher disease patients, L444P/L444P
T3 sequence (P04062 40-536 L483P): T1 sequence (P04062 40-536) with L444P

In the case of `CCCCCCCCCN1C[C@H](O)[C@@H](O)[C@H](O)[C@H]1CO` [compound 5, N-nonyl-DNJ], the “increase in the activity of the N370S mutant enzyme” value ([1]; fibroblasts, 10 μM concentration) is listed as “twofold increase” and the “enhancement of intracellular activity of the L444P variant” value (L444P variant) is listed as “did not enhance”.
For `CCCCCCCCN1C[C@@H](O)C(O)[C@H](O)C1` [compound 9], the “GCase inhibition [%]” value (GCase; human leukocytes extracts incubated with azasugars (1 mM), previously reported compounds) is listed as 98%, the IC50 (GCase) is listed as 30 ± 1 µM and the activity increase ([1]; N370S-mutated fibroblasts at 100 μM) is listed as 1.25 fold. For the same compound, the “PC activity (enzyme activity enhancement)” value (wild-type fibroblasts; 50 μM) was 1.5 fold.
For `CCCCCCCC[C@@H]1NC[C@@H](O)[C@@H](O)[C@@H]1O` [compound 11], the IC50 (GCase; ref 16 and 17) is listed as 93.5 ± 5.3 µM.
In the case of `CCCCCCCCC[C@H]1NC[C@@H](O)[C@H](O)[C@H]1O` [compound 7, α-1-C-nonyl-DIX], the IC50 (lysosomal GCase) is given as 0.0068 µM and the enzyme activity increase ([1]; N370S mutated fibroblasts at 10 nM) is given as 1.8 fold.
For `CCCCCCCC[C@H]1NC[C@@H](O)[C@@H](O)[C@@H]1O` [compound 12], the IC50 (GCase; ref 16 and 17) is given as 29.3 ± 1.8 µM, the enzyme recovery [2] is given as 1.9 fold and the enzyme recovery [3] is given as 1.80 fold. For the same compound, the “PC activity (enzyme activity enhancement)” value (wild-type fibroblasts; 100 μM) was 1.4 fold.
